Experimental data published in ChEMBL document CHEMBL4052718, “Stereospecific inhibition of nitric oxide production in macrophage cells by flavanonols: Synthesis and the structure-activity relationship. Part 2” (Bioorg Med Chem, 2017).

How the values were obtained:
RAW264.7 [1] = assay: Cytotoxicity against LPS-stimulated […] cells assessed as reduction in cell viability at 100 uM pretreated for 2 hrs followed by LPS-stimulation after 16 hrs by alamar blue assay; type: cell-based; conditions: raw264.7, 16 h
[2] = Cytotoxicity against LPS-stimulated […] cells assessed as cell viability pretreated for 2 hrs followed by LPS-stimulation after 16 hrs by alamar blue assay relative to control; type: cell-based; parameters: concentration or dose not given beside the values; conditions: LPS-stimulated RAW264.7 cells; read-out: Activity
RAW264.7 [3] = assay: Inhibition of LPS-stimulated nitric oxide production in […] cells pretreated for 2 hrs followed by LPS-stimulation after 16 hrs by Griess assay; type: functional, cell-based; conditions: Mus musculus
RAW264.7 [4] = assay: Inhibition of LPS-stimulated nitric oxide production in […] cells at 100 uM pretreated for 2 hrs followed by LPS-stimulation after 16 hrs by Griess assay relative to control; type: functional; conditions: Mus musculus

SMILES | IC50 (RAW264.7 [3]) | Activity (RAW264.7 [1]) | viability at 16 h [2] | inhibition at 100 µM (RAW264.7 [4])
COc1ccc2c(c1O)O[C@@H](c1cccc(O)c1O)[C@H](O)C2=O | 88.5 µM | Non-Toxic | ≥ 100% | 
O=C1c2cc(O)ccc2O[C@H](c2cccc(O)c2O)[C@H]1O | > 100 µM | Non-Toxic | ≥ 100% | 
COc1cc2c(cc1OC)C(=O)[C@@H](O)[C@H](c1cccc(O)c1O)O2 | > 100 µM | Non-Toxic | ≥ 100% | 
COc1ccc2c(c1)C(=O)[C@@H](O)[C@H](c1cccc(O)c1O)O2 | > 100 µM | Non-Toxic | ≥ 100% | 
O=C1c2ccccc2O[C@H](c2cccc(O)c2O)[C@H]1O | > 100 µM | Non-Toxic | ≥ 100% | 
O=C1c2ccc(O)cc2O[C@H](c2cccc(O)c2O)[C@H]1O | 70.7 µM | Non-Toxic | ≥ 100% | 70%
O=C1c2ccc(O)cc2O[C@@H](c2cccc(O)c2O)[C@@H]1O | > 100 µM | Non-Toxic | ≥ 100% | 
O=C1c2ccccc2O[C@@H](c2cccc(O)c2O)[C@@H]1O | > 100 µM | Non-Toxic | ≥ 100% | 
O=C1c2cc(O)ccc2O[C@@H](c2cccc(O)c2O)[C@@H]1O | > 100 µM | Non-Toxic | ≥ 100% | 
O=C1c2c(O)cccc2O[C@@H](c2cccc(O)c2O)[C@@H]1O | > 100 µM | Non-Toxic | ≥ 100% | 
COc1cc(OC)c2c(c1)O[C@H](c1cccc(O)c1O)[C@@H](O)C2=O |  |  |  | 70%
O=C1c2ccc(O)c(O)c2O[C@@H](c2cccc(O)c2O)[C@@H]1O | > 100 µM | Non-Toxic | ≥ 100% | 0%
O=C1c2c(O)cccc2O[C@H](c2cccc(O)c2O)[C@H]1O | 77.7 µM | Non-Toxic | ≥ 100% | 
COc1ccc2c(c1)C(=O)[C@H](O)[C@@H](c1cccc(O)c1O)O2 | > 100 µM | Non-Toxic | ≥ 100% | 

Continued, in another order:

IC50 (RAW264.7 [3]) | SMILES | Activity (RAW264.7 [1]) | viability at 16 h [2] | inhibition at 100 µM (RAW264.7 [4])
57.6 µM | COc1cc(OC)c2c(c1)OC(c1cccc(O)c1O)C(O)C2=O (racemic) | Non-Toxic | ≥ 100% | 58%
24.6 µM | COc1ccc2c(c1)O[C@H](c1cccc(O)c1O)[C@@H](O)C2=O | Non-Toxic | ≥ 100% | 
20.7 µM | Cc1cc2c(cc1C)C(=O)C(O)C(c1cccc(O)c1O)O2 (racemic) | Non-Toxic | ≥ 100% | 
17 µM | O=C1c2ccc(O)c(O)c2O[C@H](c2cccc(O)c2O)[C@H]1O | Non-Toxic | ≥ 100% | 95%
50.3 µM | COc1cc2c(cc1OC)C(=O)[C@H](O)[C@@H](c1cccc(O)c1O)O2 | Non-Toxic | ≥ 100% | 93%
49.7 µM | COc1ccc2c(c1O)O[C@H](c1cccc(O)c1O)[C@@H](O)C2=O | Non-Toxic | ≥ 100% | 93%
31.8 µM | Cc1ccc2c(c1)OC(c1cccc(O)c1O)C(O)C2=O (racemic) | Non-Toxic | ≥ 100% | 
45.3 µM | Cc1ccc2c(c1)C(=O)C(O)C(c1cccc(O)c1O)O2 (racemic) | Non-Toxic | ≥ 100% | 
30.3 µM | COc1ccc2c(c1)O[C@@H](c1cccc(O)c1O)[C@H](O)C2=O | Non-Toxic | ≥ 100% | 
